Laboratory results as given in patent publication US12655142B2 (Merck Patent GmbH, priority 2019, dated 2026).

Experiments:
[1] = molecular target: T1, GIST430/654 cell line expressing mutated constitutively active cKIT receptor tyrosine kinase (Δ560-576 deletion and V654A point mutation) (Homo sapiens, UniProt P10721, DEL560-576/V654A); test: Cellular cKIT autophosphorylation (phospho-Y307-cKIT, Luminex bead assay) in GIST430/654 cells; assay type: cell-based; conditions: compounds 45 min, read-out: GIST 430/654 IC50
T1 construct: endogenous in cells; host or cells: GIST430/654 cells
Procedure, shortened: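 GIST430 (Δ560-576) and imatinib-resistant GIST430/654 (plus V654A; grown with 100 nM imatinib) cells were plated in IMDM/15% FCS and treated next day with serially diluted compound for 45 min. Lysates were captured on anti-total-cKIT Luminex beads overnight at 4 °C and probed for phospho-Y307. IC50 was taken from percent of 0.3% DMSO control.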

[2] = Determination of Efflux-Ratio (ER) in Caco-2 cells; conditions: human, Caco-2, pH 7.4
Experimental: Determination of Efflux-Ratio (ER) in Caco-2 Cells
The efflux ratio of the test compounds was determined in Caco-2 human epithelial colorectal adenocarcinoma cell line (TC7 clone) using calculation of apparent permeability (Papp). Cell monolayers were differentiated in vitro for 14 days before the experiment. Subsequently, the test compound (in HBSS pH 7.4 at 1 μM final concentration) was applied on the donor side while HBSS buffer (pH 7.4) was added to the receiver wells. […] The plate was then incubated in a 5% CO2 incubator (37° C., 100% humidity). At the end of the 2 hours incubation period, 50 μL sample was removed from both donor and receiver wells and diluted 1:1 with equal volumes of acetonitrile for LC-MS/MS analysis. The LC-MS/MS analysis used a one-point calibration method from a 1 μM standard solution diluted 1:1 with equal volume of acetonitrile (consistent to the test samples).
The data was used to calculate the apparent permeabilities of the compounds in both apical to basolateral (Papp,AB) and basolateral to apical (Papp,BA) directions at 1 μM concentration in duplicate. The Papp values were calculated from the concentrations in the donor and receiver compartments using the following formula:
Efflux ratio was calculated according to the following formula:

[3] = molecular target: T2, GIST430 cell line expressing constitutive active cKIT receptor tyrosine kinase (Δ560-576 deletion) (Homo sapiens, UniProt P10721, DEL560-576); test: Cellular cKIT autophosphorylation (phospho-Y307-cKIT, Luminex bead assay) in GIST430 cells; assay type: cell-based; conditions: cKIT autophosphorylation, GIST430 cells, compounds 45 min; read-out: GIST 430 IC50
T2 construct: endogenous in cells; host or cells: GIST430 cells
Experimental: Assay Principle for Cellular Testing of cKIT Mutant Inhibitors
The GIST430 cell line expressing constitutive active cKIT receptor tyrosine kinase (Δ560-576 deletion) and the Imatinib resistant GIST430/654 cell line expressing mutated constitutively active cKIT receptor tyrosine kinase (Δ560-576 deletion and V654A point mutation) were employed for assessing cellular potency of compounds. Cellular activity of mutant cKIT was determined by the degree of cKIT autophosphorylation at tyrosine 307 using a Luminex-based bead assay. GIST430 cells were plated with 22,000 cells per well of a 96-well plate in 100 μl medium (85% IMDM/15% FCS) and GIST430/654 cells were plated with 25,000 cells per well of a 96-well plate in 100 μl medium (85% IMDM/15% FCS supplemented with 100 nM Imatinib). At the following day compounds were added in a serial dilution for 45 min. Then, cells were lysed with 90 μl lysis buffer (20 mM Hepes pH 7.5, 200 mM NaCl, 1.5 mM MgCl2×6H2O, 0.4 mM EDTA, 1% Triton-X-100, 1% Phosphatase-Inhibitor II, 20 mM β-Glycerolphosphat, 0.1% Protease-Inhibitor Cocktail III, 0.01% Benzonase) and lysates were cleared by centrifugation through a 96-well filter plate (0.65 μm). Samples were incubated with Luminex-beads which were coupled with an anti-total cKIT antibody overnight at 4° C. under gentle agitation. For detection of phospho-Y307-cKIT a phosphospecific antibody and a species-specific PE-labeled secondary antibody were added. The amount of phospho-Y307-cKIT was determined in a Luminex 200 instrument measuring 100 events per well within 60 seconds.
Counts from samples treated with compounds were calculated as percent of control from solvent treated (0.3% DMSO) samples. Dose-response curves were fitted and IC50 values were determined using Genedata Screener software.

c-Kit(V654A) = molecular target: T3, c-Kit(V654A) (Homo sapiens, UniProt P10721, V654A); test: c-Kit(V654A) assay (33P-ATP filter binding kinase assay); assay type: biochemical; conditions: recombinant human c-Kit aa 544-end V654A, ATP 200 μM
T3 construct: recombinant human c-Kit, amino acids 544-end containing the V654A mutation; GST (N)
Procedure, shortened: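 Radiometric filter-binding read-out: substrate 33P incorporation counted by scintillation after P30 filtermat washes in 75 mM phosphoric acid and methanol. Enzyme: N-GST recombinant human c-Kit aa 544-end carrying V654A.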

T1 sequence (P10721 with tags, fused parts or gaps DEL560-576/V654A): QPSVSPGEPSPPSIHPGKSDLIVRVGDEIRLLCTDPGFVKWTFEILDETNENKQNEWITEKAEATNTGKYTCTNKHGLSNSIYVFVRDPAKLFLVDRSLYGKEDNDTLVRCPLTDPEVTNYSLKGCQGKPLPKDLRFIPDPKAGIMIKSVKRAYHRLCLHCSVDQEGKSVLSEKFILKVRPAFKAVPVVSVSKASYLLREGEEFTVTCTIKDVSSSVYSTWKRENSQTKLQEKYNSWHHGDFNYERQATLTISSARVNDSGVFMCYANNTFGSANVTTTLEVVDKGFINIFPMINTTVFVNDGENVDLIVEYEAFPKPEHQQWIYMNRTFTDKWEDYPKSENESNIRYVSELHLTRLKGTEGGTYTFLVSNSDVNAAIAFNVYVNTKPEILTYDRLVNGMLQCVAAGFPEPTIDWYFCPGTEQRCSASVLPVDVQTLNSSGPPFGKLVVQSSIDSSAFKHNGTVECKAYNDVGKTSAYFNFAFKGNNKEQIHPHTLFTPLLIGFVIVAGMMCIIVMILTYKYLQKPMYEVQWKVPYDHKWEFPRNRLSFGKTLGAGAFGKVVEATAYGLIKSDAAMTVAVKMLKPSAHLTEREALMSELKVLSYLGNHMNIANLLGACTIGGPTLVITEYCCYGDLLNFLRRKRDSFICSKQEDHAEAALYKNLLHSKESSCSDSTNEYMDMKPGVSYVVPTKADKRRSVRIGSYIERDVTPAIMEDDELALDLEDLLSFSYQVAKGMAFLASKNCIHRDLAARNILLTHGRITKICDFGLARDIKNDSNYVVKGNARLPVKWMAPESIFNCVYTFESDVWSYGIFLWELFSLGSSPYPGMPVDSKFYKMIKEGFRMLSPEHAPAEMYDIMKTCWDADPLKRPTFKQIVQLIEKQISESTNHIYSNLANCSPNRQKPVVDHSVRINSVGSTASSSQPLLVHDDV
T2 sequence (P10721 with tags, fused parts or gaps DEL560-576): as the sequence (P10721 with tags, fused parts or gaps DEL560-576/V654A) above, with A612V counted along it
T3 sequence (P10721 544-976 V654A): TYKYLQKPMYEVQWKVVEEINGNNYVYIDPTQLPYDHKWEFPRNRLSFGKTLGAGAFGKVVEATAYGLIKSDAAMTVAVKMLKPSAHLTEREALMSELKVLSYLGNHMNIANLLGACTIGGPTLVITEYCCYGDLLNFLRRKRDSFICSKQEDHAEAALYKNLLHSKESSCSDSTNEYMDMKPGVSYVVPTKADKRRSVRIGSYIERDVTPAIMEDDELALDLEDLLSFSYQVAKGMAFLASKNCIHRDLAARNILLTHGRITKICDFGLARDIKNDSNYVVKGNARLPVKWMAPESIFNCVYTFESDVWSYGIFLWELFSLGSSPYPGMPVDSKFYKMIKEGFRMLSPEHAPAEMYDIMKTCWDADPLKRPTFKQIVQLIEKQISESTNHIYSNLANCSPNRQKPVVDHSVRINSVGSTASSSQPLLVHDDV

Structure (SMILES) | IC50 [1] [nM] | efflux ratio at 2 h, 1 μM [2] | IC50 [3] [nM] | IC50 (c-Kit(V654A)) [nM]
Cc1nc(-c2ccc(CNc3cc(-c4cnc5cc(OCCN6CCC(=O)N(C)CC6)ccn45)ncn3)cc2)co1 [A261, 4-methyl-1-[2-({3-[6-({[4-(2-methyl-1,3-oxazol-4-yl)phenyl]methyl}amino)pyrimidin-4-yl]imidazo[1,2-a]pyridin-7-yl}oxy)ethyl]-1,4-diazepan-5-one] | 54 | < 15 | 1.4 | 2.1
COc1ccn2c(-c3cc(NCc4ccc(-n5ccnn5)cc4)ncn3)cnc2c1 [A18, 6-{7-methoxyimidazo[1,2-a]pyridin-3-yl}-N-{[4-(1H-1,2,3-triazol-1-yl)phenyl]methyl}pyrimidin-4-amine] | 200 | < 15 | 7.2 | 13
c1ccn2c(-c3cc(NCc4ccc(N5CCCC5)nc4)ncn3)cnc2c1 [A147, (6-imidazo[1,2-a]pyridin-3-yl-pyrimidin-4-yl)-(6-pyrrolidin-1-yl-pyridin-3-ylmethyl)-amine] | 430 | < 15 | 7.3 | 5.4
COc1ccn2c(-c3cc(NCc4ccc(-c5coc(C)n5)cc4)ncn3)cnc2c1 [A42, 6-{7-methoxyimidazo[1,2-a]pyridin-3-yl}-N-{[4-(2-methyl-1,3-oxazol-4-yl)phenyl]methyl}pyrimidin-4-amine] | 59 | < 15 | 1.8 | 1.3
FC(F)(F)Oc1ccc(CNc2cc(-c3cnc4cc(OCCN5CCn6nncc6C5)ccn34)ncn2)cc1 [A265, 6-[7-(2-{4H,5H,6H,7H-[1,2,3]triazolo[1,5-a]pyrazin-5-yl}ethoxy)imidazo[1,2-a]pyridin-3-yl]-N-{[4-(trifluoromethoxy)phenyl]methyl}pyrimidin-4-amine] | 78 | < 15 | 3.3 | 6.8
COCCOc1ccn2c(-c3cc(NCc4ccc(-n5ccnn5)cc4)ncn3)cnc2c1 [A16, 6-[7-(2-methoxyethoxy)imidazo[1,2-a]pyridin-3-yl]-N-{[4-(1H-1,2,3-triazol-1-yl)phenyl]methyl}pyrimidin-4-amine] | 130 | < 15 | 4.2 | 6.3
FC1(F)CCN(c2ccc(CNc3cc(-c4cnc5ccccn45)ncn3)cn2)C1 [A150, [6-(3,3-difluoro-pyrrolidin-1-yl)-pyridin-3-ylmethyl]-(6-imidazo[1,2-a]pyridin-3-yl-pyrimidin-4-yl)-amine] | 140 | < 15 | 12 | 8.9
Cn1cc(-c2ccc(CNc3cc(-c4cnc5cc(OCC6CCN(C7COC7)CC6)ccn45)ncn3)cc2)cn1 [A78, [4-(1-methyl-1H-pyrazol-4-yl)-benzyl]-{6-[7-(1-oxetan-3-yl-piperidin-4-ylmethoxy)-imidazo[1,2-a]pyridin-3-yl]-pyrimidin-4-yl}-amine] | 79 | < 15 | 3.6 | 9.1
Cn1ncc(-c2ccc(CNc3cc(-c4cnc5cc(OCC(C)(C)O)ccn45)ncn3)cc2)n1 [A85, 2-methyl-1-(3-{6-[4-(2-methyl-2H-[1,2,3]triazol-4-yl)-benzylamino]-pyrimidin-4-yl}-imidazo[1,2-a]pyridin-7-yloxy)-propan-2-ol] | 65 | < 15 | 3.3 | 6.5
CC1(F)CCN(CCCOc2ccn3c(-c4cc(NCc5ccc(-c6cocn6)cc5)ncn4)cnc3c2)CC1 [A263, 6-{7-[3-(4-fluoro-4-methylpiperidin-1-yl)propoxy]imidazo[1,2-a]pyridin-3-yl}-N-{[4-(1,3-oxazol-4-yl)phenyl]methyl}pyrimidin-4-amine] | 66 | < 15 | 4.3 | 2.3
CN1CCC(COc2ccn3c(-c4cc(NCc5ccc(-c6cnn(C)n6)cc5)ncn4)cnc3c2)CC1 [A79, {6-[7-(1-methyl-piperidin-4-ylmethoxy)-imidazo[1,2-a]pyridin-3-yl]-pyrimidin-4-yl}-[4-(2-methyl-2H-[1,2,3]triazol-4-yl)-benzyl]-amine] | 28 | < 15 | 4.1 | 1.5
CO[C@H]1CCN(c2ccc(CNc3cc(-c4cnc5ccccn45)ncn3)cn2)C1 [A151, 6-{imidazo[1,2-a]pyridin-3-yl}-N-({6-[(3S)-3-methoxypyrrolidin-1-yl]pyridin-3-yl}methyl)pyrimidin-4-amine] | 300 | < 15 | 9.9 | 15
Cc1nc(-c2ccc(CNc3cc(-c4cnc5cc(OCCN6CCn7nncc7C6)ccn45)ncn3)cc2)co1 [A264, N-{[4-(2-methyl-1,3-oxazol-4-yl)phenyl]methyl}-6-[7-(2-{4H,5H,6H,7H-[1,2,3]triazolo[1,5-a]pyrazin-5-yl}ethoxy)imidazo[1,2-a]pyridin-3-yl]pyrimidin-4-amine] | 36 | 15 to 50 | 1.1 | 1.6

Further lines, results first:

IC50 [1] [nM] | efflux ratio at 2 h, 1 μM [2] | IC50 [3] [nM] | IC50 (c-Kit(V654A)) [nM] | Structure (SMILES)
32 | < 15 | 3.7 | 4.1 | CN1CCC(COc2ccn3c(-c4cc(NCc5ccc(-c6cnn(C)c6)cc5)ncn4)cnc3c2)CC1 [A62, {6-[7-(1-methyl-piperidin-4-ylmethoxy)-imidazo[1,2-a]pyridin-3-yl]-pyrimidin-4-yl}-[4-(1-methyl-1H-pyrazol-4-yl)-benzyl]-amine]
47 | < 15 | 3.8 | 19 | Cn1cc(-c2ccc(CNc3cc(-c4cnc5cc(N6CCC(CCO)C6)ccn45)ncn3)cc2)cn1 (centres unmarked) [A178, 2-[1-(3-{6-[4-(1-methyl-1H-pyrazol-4-yl)-benzylamino]-pyrimidin-4-yl}-imidazo[1,2-a]pyridin-7-yl)-pyrrolidin-3-yl]-ethanol]
43 | 15 to 50 | 1.9 | 6 | Cn1cc(-c2ccc(CNc3cc(-c4cnc5cc(OCCCN[C@@H]6CCOC6)ccn45)ncn3)cc2)cn1 [A260, N-{[4-(1-methyl-1H-pyrazol-4-yl)phenyl]methyl}-6-[7-(3-{[(3R)-oxolan-3-yl]amino}propoxy)imidazo[1,2-a]pyridin-3-yl]pyrimidin-4-amine]
130 | < 15 | 5.1 | 7.9 | Cn1cc(-c2ccc(CNc3cc(-c4cnc5cc(-n6cncn6)ccn45)ncn3)cc2)cn1 [A266, N-{[4-(1-methyl-1H-pyrazol-4-yl)phenyl]methyl}-6-[7-(1H-1,2,4-triazol-1-yl)imidazo[1,2-a]pyridin-3-yl]pyrimidin-4-amine]
63 | < 15 | 1.7 | 4.4 | Cc1cn(-c2ccn3c(-c4cc(NCc5ccc(-c6cnn(C)c6)cc5)ncn4)cnc3c2)cn1 [A267, 6-[7-(4-methyl-1H-imidazol-1-yl)imidazo[1,2-a]pyridin-3-yl]-N-{[4-(1-methyl-1H-pyrazol-4-yl)phenyl]methyl}pyrimidin-4-amine]
75 | < 15 | 2.7 | 6.3 | Cn1cc(-c2ccc(CNc3cc(-c4cnc5cc(OCCO)ccn45)ncn3)cc2)cn1 [A172, 2-({3-[6-({[4-(1-methyl-1H-pyrazol-4-yl)phenyl]methyl}amino)pyrimidin-4-yl]imidazo[1,2-a]pyridin-7-yl}oxy)ethan-1-ol]
56 | < 15 | 2.7 | 5.1 | Cn1cc(-c2ccc(CNc3cc(-c4cnc5cc(OCCCNC6COC6)ccn45)ncn3)cc2)cn1 [A258, N-{[4-(1-methyl-1H-pyrazol-4-yl)phenyl]methyl}-6-(7-{3-[(oxetan-3-yl)amino]propoxy}imidazo[1,2-a]pyridin-3-yl)pyrimidin-4-amine]
